For the experiment, the species on record is Homo sapiens. Kind of experiment: Selectivity ratio of IC50 for recombinant human CYP2C19 to IC50 for recombinant human CYP1A1.

Where only a bound is given, the exact number is not on record here.

With `COc1cc(/C=C/C(=O)c2ccncc2)cc(OC)c1OC`, the Ratio IC50 was above 100.

The record behind these values is ChEMBL document CHEMBL4177690, “(E)-3-(3,4,5-Trimethoxyphenyl)-1-(pyridin-4-yl)prop-2-en-1-one, a heterocyclic chalcone is a potent and selective CYP1A1 inhibitor and cancer chemopreventive agent” (Bioorg Med Chem Lett, 2017).
